# Results taken from patent US20100303833A1, “Method for Identifying a MHC Class H-Dependent Tumor Associated T Helper Cell Antigen” (priority 2005, published 2010).
# Ends that are not written are not given here.
# Key:
# Type in all cases: cell-based, human
# Th35-1A cells = test: Lymphocyte proliferation assay ([3H]-thymidine incorporation), Th35-1A cells with peptide-pulsed monocytes; details: for HLA dependence of peptide recognition by Th35-1A: peptide-pulsed autologous DR7+ monocytes, anti-HLA class II antibody or control mouse Ig at 10 μg/mL (FIG. 2A)
# Procedure: (§1) Lymphocyte Proliferation Assay. The lymphocyte proliferation assay was performed according to standard methods (Somasundaram, et al. (1995) J. Immunol. 155:3253-61). For screening of Th35-1A cell-reactivity with phage libraries, T helper cells (1-2×10^4/well of 96-well round-bottom microtiter plates; CORNING, Corning, N.Y.) were cultured with irradiated autologous EBV-B cells (10^4/well) pre-pulsed with 1-3×10^3 phage. To determine T helper or PBMC reactivity with peptide, adherent monocytes (5×10^4/well, obtained from PBMC) pre-pulsed with various concentrations (3.1-50 μM) of peptide were incubated with Th35-1A cells or PBMC (5×10^4/well). T helper cells or PBMC were stimulated with peptide-pulsed monocytes once or twice. All incubations were at 37° C. for 5 days in RPMI 1640/GLUTAMAX medium supplemented with 10% heat-inactivated human AB serum (Gemini Bioproducts, West Sacramento, Calif.), 10 mM HEPES and 5×10^−5 M 2-mercaptoethanol (both from SIGMA-ALDRICH). Proliferative responses of lymphocytes were determined using a standard [^3H]-thymidine incorporation assay. All determinations were performed in triplicate. Results are expressed as counts per minute (cpm) incorporated into lymphocytes. The lymphocyte proliferation inhibition assay with anti-HLA class II antibody B33.1 was performed using established methods (Somasundaram, et al. (1995) supra).
# PBMC = test: Lymphocyte proliferation assay ([3H]-thymidine incorporation), PBMC with peptide-pulsed autologous monocytes
# Procedure: as §1
# lymphocytes = test: IFN-γ release assay (ELISA)
# Procedure: IFN-γ Release Assay. Supernatants obtained 48 hours after T helper cell stimulation with phage-pulsed EBV-B cells were tested for the presence of IFN-γ using an ENDOGEN ELISA kit (Pierce Biotechnology, Inc., Rockford, Ill.).
sequence,measurement,setting,value
"TGRLRGTKTVQEKEN [peptide #2, RPL8 position 243-257]",Recognition by Th35-1A,Th35-1A cells; after presentation by autologous monocytes (FIG. 2A),recognized
same,Presentation of peptide to Th35-1A cells by allogeneic DR7+ monocytes,Th35-1A cells; allogeneic DR7+ monocytes (FIG. 2C),presented
same,Presentation of peptide to Th35-1A cells by DR7− monocytes,Th35-1A cells; allogeneic DR7− monocytes (FIG. 2D),did not
same,HLA dependence of peptide recognition by Th35-1A,Th35-1A cells,HLA class II-dependent
same,HLA dependence of peptide recognition by Th35-1A,Th35-1A cells; listed as RPL8 peptide #2,HLA DR7- and peptide concentration-dependent
same,"Th35-1A proliferation, dependence on peptide concentration","Th35-1A cells; peptide-pulsed autologous monocytes, various concentrations (FIG. 2B)",peptide concentration-dependent
same,Proliferation of autologous PBMC following peptide stimulation,"PBMC; lymphocytes from two of the three DR7+ melanoma patients (FIGS. 3A-3C), stimulated twice",significantly and specifically proliferated
same,Lymphoproliferative responses to peptide stimulation,"PBMC; two DR7− melanoma patients (FIGS. 3D, 3E) and four healthy donors (FIG. 3F), one peptide stimulation, listed as RPL8 peptide #2",did not respond
same,IFN-γ produced,"lymphocytes; non-proliferating lymphocytes from two DR7− patients (FIGS. 3D, 3E) and healthy donor (FIG. 3F)",< 12 pg/mL
same,IFN-γ produced maximally,lymphocytes; proliferating lymphocytes from DR7+ patient of FIG. 3A,124.3±1.67 pg per mL
same,IFN-γ produced maximally,lymphocytes; proliferating lymphocytes from DR7+ patient of FIG. 3B,224.3±4.3 pg per mL
